Measured values as given in US20180251431A1 (VERTEX PHARMACEUTICALS INCORPORATED, priority 2016, published 2018).

Test system: HEK293 cells
Experiment: HEK293 VLCFA-LPC IC50 determination (13C-labeled C26:0 LPC by UHPLC/MS)
Type: cell-based, human
Conditions: Homo sapiens, HEK293, HEK293 cells; average of one or more replicates; read-out: Average HEK293 IC50
In short: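 Suspension HEK293 cells (final 0.5 million/mL after mixing with equal volume) incubated 48 hours with compound plus 13C-acetate (1.0 mg/mL in added media), shaking at 37° C. Lipids extracted with hexane/isopropanol or methanol, C13:0 LPC standard. UHPLC/MS of 13C-labeled C26:0 LPC (638.500/104.100 m/z); IC50 by four-parameter fit.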

How did the IC50 turn out when O=C(Nc1ccn(-c2ccncc2)n1)C1(c2ncccc2F)CC12CC2 (stereo not shown) [Compound 526, 2-(3-fluoro-2-pyridyl)-N-[1-(4-pyridyl)pyrazol-3-yl]spiro[2.2]pentane-2-carboxamide] was run?
The IC50 was 1.9 µM.

Which IC50 does the source give for COc1cc(-n2ccc(NC(=O)C3(c4ncccc4F)CC34CC4)n2)ccn1 (stereo not shown) [Compound 527, 2-(3-fluoro-2-pyridyl)-N-[1-(2-methoxy-4-pyridyl)pyrazol-3-yl]spiro[2.2]pentane-2-carboxamide] here?
The IC50 was > 2 µM.

With CC1CC1(C(=O)Nc1ccn(-c2ccncc2)n1)c1ncccc1F (stereo not shown) [Compound 528, 1-(3-fluoro-2-pyridyl)-2-methyl-N-[1-(4-pyridyl)pyrazol-3-yl]cyclopropanecarboxamide] as the compound, how does the IC50 read?
Its IC50 is 0.27 µM.

Which IC50 does the source give for O=C(Nc1ccn(-c2cncc(F)c2)n1)C1(c2ncccn2)CC1 [Compound 529, N-[1-(5-fluoro-3-pyridyl)pyrazol-3-yl]-1-pyrimidin-2-yl-cyclopropanecarboxamide] here?
Its IC50 is 1.3 µM.

Which IC50 does the source give for O=C(Nc1ccn(-c2cncc(Cl)c2)n1)C1(c2ncccn2)CC1 [Compound 530, N-[1-(5-chloro-3-pyridyl)pyrazol-3-yl]-1-pyrimidin-2-yl-cyclopropanecarboxamide] here?
Its IC50 is > 5 µM.

For O=C(Nc1ccn(-c2ccc(F)c(F)c2)n1)C1(c2ncccn2)CC1 [Compound 532, N-[1-(3,4-difluorophenyl)pyrazol-3-yl]-1-pyrimidin-2-yl-cyclopropanecarboxamide], which IC50 is on record?
The IC50 was > 5 µM.

How did the IC50 turn out when Cc1cc(NC(=O)C2(c3ncccn3)CC2)nn1-c1ccc(F)cc1F [Compound 533, N-[1-(2,4-difluorophenyl)-5-methyl-pyrazol-3-yl]-1-pyrimidin-2-yl-cyclopropanecarboxamide] was run?
Its IC50 is > 2 µM.

O=C(Nc1ccn(-c2cc(F)cc(F)c2)n1)C1(c2ncccn2)CC1 [Compound 534, N-[1-(3,5-difluorophenyl)pyrazol-3-yl]-1-pyrimidin-2-yl-cyclopropanecarboxamide] was tested. Which IC50 did it give?
The IC50 was > 5 µM.

COc1ncc(-n2ccc(NC(=O)C3(c4ncccn4)CC3)n2)cc1F [Compound 535, N-[1-(5-fluoro-6-methoxy-3-pyridyl)pyrazol-3-yl]-1-pyrimidin-2-yl-cyclopropanecarboxamide] was tested. Which IC50 did it give?
The IC50 was > 5 µM.

For O=C(Nc1ccn(-c2ccncc2)n1)C1(c2ncccn2)CC1 [Compound 536, N-[1-(4-pyridyl)pyrazol-3-yl]-1-pyrimidin-2-yl-cyclopropanecarboxamide], which IC50 is on record?
The IC50 was > 5 µM.
